Data published in patent US11535610B2, “Acid addition salts of benzimidazole derivative” (HK INNO.N CORPORATION, priority 2016, dated 2022).
Where two headings read alike, the source gives them in different places.

Columns and labels:
[1] = Comparative test on solid-phase stability (Karl Fischer, HPLC); type: physicochemical; settings: for Total impurities (%), 1 month elapsed / Total impurities (%), Initial: HPLC area %; for Total impurities (%), 1 month elapsed / Moisture (%), 1 month elapsed: PE-bag, 75% RH, one month; for Moisture (%), 1 month elapsed / Moisture (%), Initial: Karl Fischer
[2] = Comparative test on liquid-phase stability (HPLC, degradation product of formula 4); type: physicochemical; settings: for Concentration (%) of degradation product (compound of the formula 4), Initial / Concentration (%) of degradation product (compound of the formula 4), 1 day (24 hours) elapsed: 20 mg/ml
[3] = Comparative test on solubility of amorphous acid addition salts (supersaturation method); settings: room temperature, solubility of acid addition salt per se, not converted to free base; for solubility: water, thermodynamic from solid, Water solubility
[4] = Comparative test on precipitation stability in pH 6.8 buffer; type: physicochemical; settings: 10 mg/ml in buffer solution of pH 6.8, stored at 37° C. for 24 hours
[5] = Water solubility at room temperature of 1:1 co-crystals of the compound of the formula 1 with co-crystal formers; settings: co-crystal at 1:1 molar ratio with compound of the formula 1

Row | Molecule | Concentration of degradation products (%), Initial [1] [%] | Total impurities (%), 1 month elapsed [1] [%] | Total impurities (%), Initial [1] [%] | Moisture (%), 1 month elapsed [1] [%] | Moisture (%), Initial [1] [%] | Soil precipitation or not [4] | Water-solubility [5] [µg/mL] | further results
1 | Cc1nc2c(O[C@H]3CCOc4cc(F)cc(F)c43)cc(C(=O)N(C)C)cc2[nH]1 | 0.04 | 0.06 | 0.06 | 0.1 | 0.1 | a homogenous solution was maintained |  | Concentration of degradation products (%), 1 month elapsed ([1]; 1 month): 0.04%; Concentration (%) of degradation product (compound of the formula 4), Initial [2]: 0.03%; Concentration (%) of degradation product (compound of the formula 4), 1 day (24 hours) elapsed [2]: 0.07%; solubility [3]: ≥ 50000 µg/mL
2 | O=S(=O)(O)c1cccc2c(S(=O)(=O)O)cccc12 [1.5-naphinalenedisulfonic acid] |  |  |  |  |  |  |  | Water solubility [3]: 2500 µg/mL
3 | Cc1nc2c(OC3CCOc4cc(F)cc(F)c43)cc(C(=O)N(C)C)cc2[nH]1 (centres unmarked) [Amorphous free base] |  |  |  |  |  |  |  | solubility [3]: 3000 µg/mL
4 | C[C@H](N)C(=O)O [L-Alanine] |  |  |  |  |  |  | 4000 | 
5 | NCCCC[C@H](N)C(=O)O [L-Lysine] |  |  |  |  |  |  | 8000 | 
6 | CC(C)[C@H](N)C(=O)O [L-Valine] |  |  |  |  |  |  | 3000 | 
7 | CC(C)C[C@H](N)C(=O)O [L-leucine] |  |  |  |  |  |  | 12000 | 
8 | O=C1CC[C@@H](C(=O)O)N1 [L-pyroglutamic acid] | 0.02 | 0.07 | 0.07 | 0.1 | 0.1 | a homogenous solution was maintained |  | Concentration of degradation products (%), 1 month elapsed ([1]; 1 month): 0.02%; Concentration (%) of degradation product (compound of the formula 4), Initial [2]: 0.02%; Concentration (%) of degradation product (compound of the formula 4), 1 day (24 hours) elapsed [2]: 0.05%
9 | Cc1ccc(S(=O)(=O)O)cc1 [p-toluenesulfonic acid] |  |  |  |  |  |  |  | Water solubility [3]: 27000 µg/mL
10 | Fumaric acid | 0.09 | 0.43 | 0.14 | 0.3 | 0.1 | Precipitated |  | Concentration of degradation products (%), 1 month elapsed [1]: 0.12%; physical state of the solution (homogenous liquid-phase state or gel) ([2]; 20 mg/ml in purified water, stirred at 40° C.): formed a sticky gel; Soil precipitation or not ([4]; listed as fumaric acid): a solid was precipitated
